Measurements as given in ChEMBL document CHEMBL3875218, “Bifunctional conjugates with potent inhibitory activity towards cyclooxygenase and histone deacetylase” (Bioorg Med Chem, 2017).
The source made the active and inactive calls. The calls are words filed in the database; no cut-off is given here.

Key:
Histone deacetylase 1 = Histone deacetylase 1 (Homo sapiens, UniProt Q13547); test: Inhibition of HDAC1 (unknown origin) after 24 hrs by SAMDI mass spectroscopic analysis
Histone deacetylase 2 [1] = target: T1, Histone deacetylase 2 (Homo sapiens, UniProt Q92769); test: Inhibition of HDAC2 (unknown origin) at 10 uM after 24 hrs by SAMDI mass spectroscopic analysis
Histone deacetylase 3 = Histone deacetylase 3 (Homo sapiens, UniProt O15379); test: Inhibition of HDAC3 (unknown origin) after 5 hrs by SAMDI mass spectroscopic analysis
[2] = target: T2, Protein deacetylase HDAC6 (Homo sapiens, UniProt Q9UBN7); test: Inhibition of HDAC6 (unknown origin) after 20 hrs by SAMDI mass spectroscopic analysis
T2 sequence (Q9UBN7 whole entry): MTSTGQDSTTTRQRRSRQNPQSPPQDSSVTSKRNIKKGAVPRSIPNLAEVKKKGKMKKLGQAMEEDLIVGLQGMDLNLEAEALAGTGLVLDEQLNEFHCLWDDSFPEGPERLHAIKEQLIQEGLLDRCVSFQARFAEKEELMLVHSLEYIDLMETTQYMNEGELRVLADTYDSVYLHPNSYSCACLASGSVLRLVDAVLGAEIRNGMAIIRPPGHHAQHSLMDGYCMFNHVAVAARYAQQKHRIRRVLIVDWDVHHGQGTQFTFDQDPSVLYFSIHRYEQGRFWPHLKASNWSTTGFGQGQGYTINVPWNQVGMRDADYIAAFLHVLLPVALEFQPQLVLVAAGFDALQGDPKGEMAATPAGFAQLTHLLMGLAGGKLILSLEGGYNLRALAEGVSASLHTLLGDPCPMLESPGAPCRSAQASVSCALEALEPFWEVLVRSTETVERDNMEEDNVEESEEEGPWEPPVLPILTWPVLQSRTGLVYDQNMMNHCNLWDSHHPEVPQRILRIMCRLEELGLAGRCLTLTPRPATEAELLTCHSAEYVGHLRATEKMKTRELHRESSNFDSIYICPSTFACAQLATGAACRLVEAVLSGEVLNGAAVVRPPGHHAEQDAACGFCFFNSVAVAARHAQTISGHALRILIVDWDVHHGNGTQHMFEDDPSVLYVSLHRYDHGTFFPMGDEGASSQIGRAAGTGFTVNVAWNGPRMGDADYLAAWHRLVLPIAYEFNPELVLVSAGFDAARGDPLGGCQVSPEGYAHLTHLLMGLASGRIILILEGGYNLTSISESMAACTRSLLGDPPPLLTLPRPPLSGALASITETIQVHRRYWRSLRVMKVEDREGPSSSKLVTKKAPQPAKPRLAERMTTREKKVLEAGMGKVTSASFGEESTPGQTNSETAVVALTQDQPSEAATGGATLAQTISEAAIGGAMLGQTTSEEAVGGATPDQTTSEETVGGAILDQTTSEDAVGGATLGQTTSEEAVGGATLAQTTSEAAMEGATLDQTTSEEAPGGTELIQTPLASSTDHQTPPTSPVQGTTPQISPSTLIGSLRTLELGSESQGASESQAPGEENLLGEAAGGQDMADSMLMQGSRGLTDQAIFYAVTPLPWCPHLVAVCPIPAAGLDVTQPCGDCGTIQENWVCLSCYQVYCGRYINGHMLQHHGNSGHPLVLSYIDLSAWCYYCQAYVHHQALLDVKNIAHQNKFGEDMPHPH

Histone deacetylase 8 = target: T3, Histone deacetylase 8 (Homo sapiens, UniProt Q9BY41); test: Inhibition of HDAC8 (unknown origin) after 2.5 hrs by SAMDI mass spectroscopic analysis
T3 sequence (Q9BY41 whole entry): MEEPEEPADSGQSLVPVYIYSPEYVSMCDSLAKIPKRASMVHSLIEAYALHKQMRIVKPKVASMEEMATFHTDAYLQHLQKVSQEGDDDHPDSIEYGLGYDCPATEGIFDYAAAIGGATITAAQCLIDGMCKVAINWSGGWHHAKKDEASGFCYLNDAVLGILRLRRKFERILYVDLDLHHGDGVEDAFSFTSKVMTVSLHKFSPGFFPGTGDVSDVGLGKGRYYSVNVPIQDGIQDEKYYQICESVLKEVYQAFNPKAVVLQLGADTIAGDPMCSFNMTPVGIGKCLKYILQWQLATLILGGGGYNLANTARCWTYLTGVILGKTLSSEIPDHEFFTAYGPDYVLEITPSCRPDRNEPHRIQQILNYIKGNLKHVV

[3] = target: T4, Prostaglandin G/H synthase 1 (Ovis aries) (UniProt P05979); test: Inhibition of sheep COX1 at 10 uM using arachidonic acid as substrate preincubated for 15 mins followed by substrate addition for 2 mins by Cayman based fluorescence assay
T4 sequence (whole entry): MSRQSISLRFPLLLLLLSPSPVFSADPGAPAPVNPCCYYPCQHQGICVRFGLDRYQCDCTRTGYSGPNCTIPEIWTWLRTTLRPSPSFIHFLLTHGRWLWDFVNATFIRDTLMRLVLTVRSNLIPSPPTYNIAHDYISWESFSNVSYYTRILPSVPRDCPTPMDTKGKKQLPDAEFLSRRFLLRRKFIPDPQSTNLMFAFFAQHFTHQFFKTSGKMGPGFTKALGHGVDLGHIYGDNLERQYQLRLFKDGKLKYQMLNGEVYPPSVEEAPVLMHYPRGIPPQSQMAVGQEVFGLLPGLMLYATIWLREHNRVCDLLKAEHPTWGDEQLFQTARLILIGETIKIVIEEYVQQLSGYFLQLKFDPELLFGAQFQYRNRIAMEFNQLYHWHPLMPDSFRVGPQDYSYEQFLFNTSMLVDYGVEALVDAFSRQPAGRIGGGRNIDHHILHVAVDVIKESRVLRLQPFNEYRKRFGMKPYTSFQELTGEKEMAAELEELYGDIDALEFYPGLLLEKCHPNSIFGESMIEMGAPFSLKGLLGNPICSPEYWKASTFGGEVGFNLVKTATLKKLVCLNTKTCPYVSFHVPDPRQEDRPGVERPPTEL

[4] = target: T5, Prostaglandin G/H synthase 2 (Homo sapiens) (UniProt P35354); test: Inhibition of recombinant human COX2 at 10 uM using arachidonic acid as substrate preincubated for 15 mins followed by substrate addition for 2 mins by Cayman based fluorescence assay
T5 sequence (whole entry): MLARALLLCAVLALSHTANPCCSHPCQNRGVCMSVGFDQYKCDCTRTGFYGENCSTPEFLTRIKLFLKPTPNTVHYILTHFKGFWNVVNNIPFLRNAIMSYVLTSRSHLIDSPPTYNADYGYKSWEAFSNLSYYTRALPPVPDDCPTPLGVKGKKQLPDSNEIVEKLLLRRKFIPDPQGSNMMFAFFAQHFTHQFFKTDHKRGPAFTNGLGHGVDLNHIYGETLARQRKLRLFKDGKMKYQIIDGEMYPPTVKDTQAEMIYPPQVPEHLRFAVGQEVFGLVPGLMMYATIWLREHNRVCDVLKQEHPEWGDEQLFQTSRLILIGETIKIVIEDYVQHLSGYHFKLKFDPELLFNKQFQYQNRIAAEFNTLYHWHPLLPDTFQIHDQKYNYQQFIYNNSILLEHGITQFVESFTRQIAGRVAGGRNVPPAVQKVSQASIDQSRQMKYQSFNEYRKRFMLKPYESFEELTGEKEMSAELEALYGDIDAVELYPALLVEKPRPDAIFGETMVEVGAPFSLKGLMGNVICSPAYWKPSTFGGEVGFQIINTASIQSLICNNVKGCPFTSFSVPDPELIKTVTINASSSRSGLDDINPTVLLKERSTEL

[5] = Cytotoxicity against human MCF7 cells assessed as cell growth inhibition after 72 hrs by MTT assay; assay type: functional, cell-based; details: MCF7, 72 h
[6] = Cytotoxicity against human A549 cells assessed as cell growth inhibition after 72 hrs by MTT assay; assay type: functional, cell-based; details: A549, 72 h
[7] = Cytotoxicity against human HCT116 cells assessed as cell growth inhibition after 72 hrs by MTT assay; assay type: functional, cell-based; details: HCT-116, 72 h
[8] = Cytotoxicity against human LNCAP cells assessed as cell growth inhibition after 72 hrs by MTT assay; assay type: functional, cell-based
Histone deacetylase 2 [9] = target: T1, Histone deacetylase 2; test: Inhibition of HDAC2 (unknown origin) after 24 hrs by SAMDI mass spectroscopic analysis
[10] = Cytotoxicity against human DU145 cells assessed as cell growth inhibition after 72 hrs by MTT assay; assay type: functional, cell-based; details: DU-145, 72 h
[11] = Cytotoxicity against African green monkey Vero cells assessed as cell growth inhibition after 72 hrs by MTT assay; assay type: toxicity, cell-based; details: African green monkey (Chlorocebus sabaeus)
[12] = target: T6, Prostaglandin G/H synthase 2 (Homo sapiens, UniProt P35354); test: Inhibition of recombinant human COX2 using arachidonic acid as substrate preincubated for 15 mins followed by substrate addition for 2 mins by Cayman based fluorescence assay
T6 sequence (P35354 whole entry): T5 sequence (whole entry)

LNCaP [13] = test: Induction of cell cycle arrest in human LNCAP cells assessed as accumulation at lesser G1 phase at 2.5 uM after 24 hrs by propidium iodide staining based FACS analysis (reference value: 1.59%); assay type: functional
LNCaP [14] = test: Induction of cell cycle arrest in human LNCAP cells assessed as accumulation at G1 phase at 2.5 uM after 24 hrs by propidium iodide staining based FACS analysis (reference value: 69.5%); assay type: functional
LNCaP [15] = test: Induction of cell cycle arrest in human LNCAP cells assessed as accumulation at S phase at 2.5 uM after 24 hrs by propidium iodide staining based FACS analysis (reference value: […]); assay type: functional
LNCaP [16] = test: Induction of cell cycle arrest in human LNCAP cells assessed as accumulation at G2 phase at 2.5 uM after 24 hrs by propidium iodide staining based FACS analysis (reference value: 1.08%); assay type: functional
LNCaP [17] = test: Induction of cell cycle arrest in human LNCAP cells assessed as accumulation at greater G2 phase at 2.5 uM after 24 hrs by propidium iodide staining based FACS analysis (reference value: 0.20%); assay type: functional
BEAS2B = details: Homo sapiens, at 1 µM
Description: Inhibition of HDAC in human BEAS2B cells assessed as reduction of NTHi-induced NFkappaB activation at 1 uM preincubated for 1 hr followed by NTHi stimulation for 5 hrs by luciferase reporter gene assay

[18] = Cytotoxicity against human MCF7 cells assessed as cell growth inhibition at 100 uM after 72 hrs by MTT assay; assay type: functional; details: MCF7, 72 h, read-out: GI
LNCaP [19] = test: Induction of cell cycle arrest in human LNCAP cells assessed as accumulation at G1 phase at 40 uM after 24 hrs by propidium iodide staining based FACS analysis (reference value: 69.5%); assay type: functional
LNCaP [20] = test: Induction of cell cycle arrest in human LNCAP cells assessed as accumulation at S phase at 40 uM after 24 hrs by propidium iodide staining based FACS analysis (reference value: […]); assay type: functional
LNCaP [21] = test: Induction of cell cycle arrest in human LNCAP cells assessed as accumulation at lesser G1 phase at 40 uM after 24 hrs by propidium iodide staining based FACS analysis (reference value: 1.59%); assay type: functional
LNCaP [22] = test: Induction of cell cycle arrest in human LNCAP cells assessed as accumulation at greater G2 phase at 40 uM after 24 hrs by propidium iodide staining based FACS analysis (reference value: 0.20%); assay type: functional
LNCaP [23] = details: Homo sapiens, at 10 µM
Description: Inhibition of HDAC in human LNCAP cells assessed as down regulation of androgen receptor expression at 10 uM after 24 hrs by Western blot analysis

Sequence of Histone deacetylase 3 (O15379 whole entry): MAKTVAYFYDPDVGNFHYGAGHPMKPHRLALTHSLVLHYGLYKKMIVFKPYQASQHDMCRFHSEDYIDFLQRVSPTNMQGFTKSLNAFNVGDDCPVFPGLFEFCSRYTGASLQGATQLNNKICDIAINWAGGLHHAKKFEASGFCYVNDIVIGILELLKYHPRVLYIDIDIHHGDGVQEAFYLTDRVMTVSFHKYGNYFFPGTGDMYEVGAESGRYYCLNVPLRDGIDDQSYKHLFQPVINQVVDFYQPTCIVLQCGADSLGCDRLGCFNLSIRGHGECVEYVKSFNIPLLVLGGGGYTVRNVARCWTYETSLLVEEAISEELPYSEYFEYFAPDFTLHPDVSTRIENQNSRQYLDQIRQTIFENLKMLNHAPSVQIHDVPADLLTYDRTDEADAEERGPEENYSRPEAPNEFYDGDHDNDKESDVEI
Sequence of Histone deacetylase 1 (Q13547 whole entry): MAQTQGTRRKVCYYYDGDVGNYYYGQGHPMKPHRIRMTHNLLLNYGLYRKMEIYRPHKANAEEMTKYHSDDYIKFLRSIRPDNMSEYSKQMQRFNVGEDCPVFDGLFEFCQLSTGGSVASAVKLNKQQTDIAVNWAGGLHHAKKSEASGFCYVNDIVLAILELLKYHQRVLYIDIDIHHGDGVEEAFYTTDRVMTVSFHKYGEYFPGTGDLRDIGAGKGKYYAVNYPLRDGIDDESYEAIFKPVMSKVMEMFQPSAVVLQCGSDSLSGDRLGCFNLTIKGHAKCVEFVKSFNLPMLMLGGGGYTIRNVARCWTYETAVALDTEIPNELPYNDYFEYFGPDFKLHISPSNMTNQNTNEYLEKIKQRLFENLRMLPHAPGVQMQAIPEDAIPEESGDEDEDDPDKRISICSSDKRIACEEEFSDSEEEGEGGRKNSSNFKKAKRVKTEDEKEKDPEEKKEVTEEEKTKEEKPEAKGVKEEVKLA
T1 sequence (Q92769 whole entry): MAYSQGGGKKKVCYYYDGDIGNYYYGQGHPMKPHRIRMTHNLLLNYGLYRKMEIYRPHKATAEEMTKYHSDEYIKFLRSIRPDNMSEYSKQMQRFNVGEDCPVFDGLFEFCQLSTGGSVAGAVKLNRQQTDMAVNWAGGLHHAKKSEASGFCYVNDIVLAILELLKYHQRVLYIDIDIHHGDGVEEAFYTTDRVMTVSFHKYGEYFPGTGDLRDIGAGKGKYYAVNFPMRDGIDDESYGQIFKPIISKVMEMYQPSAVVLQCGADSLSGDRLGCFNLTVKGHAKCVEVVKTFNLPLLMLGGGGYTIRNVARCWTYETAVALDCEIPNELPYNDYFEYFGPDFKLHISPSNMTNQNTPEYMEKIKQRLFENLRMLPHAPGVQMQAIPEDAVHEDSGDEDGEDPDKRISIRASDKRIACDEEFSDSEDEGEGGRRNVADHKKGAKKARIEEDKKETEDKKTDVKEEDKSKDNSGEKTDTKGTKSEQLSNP

SMILES	IC50 (Histone deacetylase 1) [nM]	inhibition (Histone deacetylase 2 [1]) [%]	IC50 (Histone deacetylase 3) [nM]	IC50 [2] [nM]	IC50 (Histone deacetylase 8) [nM]	inhibition [3] [%]	inhibition [4] [%]	IC50 [5] [nM]	IC50 [6] [nM]	IC50 [7] [nM]	IC50 [8] [nM]	IC50 (Histone deacetylase 2 [9]) [nM]	IC50 [10] [nM]	IC50 at 72 h [11] [nM]	inhibition of growth at 100 µM [18] [%]	further results
COc1ccc2c(c1)c(CC(=O)NCCCCCC(=O)NO)c(C)n2C(=O)c1ccc(Cl)cc1	1810	41	722	49	345	40.2	95.1	> 100000	31900	16100	> 20000	–	–	–	–	–
Cc1ccc(-c2cc(C(F)(F)F)nn2-c2ccc(S(=O)(=O)NCCCCCCCC(=O)NO)cc2)cc1	968	–	256	61	989	26.1	95.6	4580	8150	–	2110	929	10100	6610	–	–
Cc1ccc(-c2cc(C(=O)NCCCCCCC(=O)NO)nn2-c2ccc(S(C)(=O)=O)cc2)cc1	261	–	338	50	345	–	60.2	–	–	–	–	–	–	–	–	IC50 [12]: 4440 nM; Activity (LNCaP [13]): 0.029%; Activity (LNCaP [14]): 85.9%; Activity (LNCaP [15]): 13.8%; Activity (LNCaP [16]): 0.5%; Activity (LNCaP [17]): 0.21%; inhibition (BEAS2B): Active
COc1ccc2c(c1)c(CC(=O)O)c(C)n2C(=O)c1ccc(Cl)cc1 [INDOMETHACIN]	–	–	–	–	–	–	–	–	–	–	–	–	–	–	5.2	Activity (LNCaP [19]): 71.5%; Activity (LNCaP [20]): 23.5%; Activity (LNCaP [21]): 2.81%; Activity (LNCaP [22]): 0.88%; inhibition (LNCaP [23]): Active
COc1ccc2c(c1)c(CC(=O)O)c(C)n2Cc1ccc(-c2cn(CCCCCCC(=O)NO)nn2)cc1	111	–	59	22	116	–	40.6	–	–	9900	–	302	–	–	47.8	–
COc1ccc2c(c1)c(CC(=O)NCCCCCCCC(=O)NO)c(C)n2C(=O)c1ccc(Cl)cc1	1760	43	283	50	707	42.8	96.2	25100	–	24800	6460	–	> 20000	34700	–	–
